Results published in the supplement of paper PMC10307832.

Key:
Assay in all cases: relative viability (nuclei count vs DMSO), 5 days (fraction); higher = more cells survive
A-427 = system: A-427
Procedure, shortened: (§1)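 Medians of duplicate plates are given as relative viability. That measure is the nuclei count in treated wells divided by the count in vehicle wells. Counts were taken on 4× images of lung cancer cell lines in 1536-well plates, 5 days after pin-tool dosing the day after seeding with one drug alone or a fixed anchor-drug dose plus five library-drug doses (not always all listed) in √10 steps.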

ABC-1 = system: ABC-1
Procedure, shortened: as §1

COR-L23 = system: COR-L23
Procedure, shortened: as §1

EMC-BAC-2 = system: EMC-BAC-2
Procedure, shortened: as §1

HARA = system: HARA
Procedure, shortened: as §1

HCC-15 = system: HCC-15
Procedure, shortened: as §1

HCC-366 = system: HCC-366
Procedure, shortened: as §1

HCC-78 = system: HCC-78
Procedure, shortened: as §1

LC-2-ad = system: LC-2-ad
Procedure, shortened: as §1

LK-2 = system: LK-2
Procedure, shortened: as §1

NCI-H1734 = system: NCI-H1734
Procedure, shortened: as §1

NCI-H1793 = system: NCI-H1793
Procedure, shortened: as §1

NCI-H1944 = system: NCI-H1944
Procedure, shortened: as §1

NCI-H1993 = system: NCI-H1993
Procedure, shortened: as §1

NCI-H2009 = system: NCI-H2009
Procedure, shortened: as §1

NCI-H2023 = system: NCI-H2023
Procedure, shortened: as §1

NCI-H2228 = system: NCI-H2228
Procedure, shortened: as §1

NCI-H23 = system: NCI-H23
Procedure, shortened: as §1

NCI-H2405 = system: NCI-H2405
Procedure, shortened: as §1

NCI-H838 = system: NCI-H838
Procedure, shortened: as §1

SK-LU-1 = system: SK-LU-1
Procedure, shortened: as §1

UMC-11 = system: UMC-11
Procedure, shortened: as §1

## COc1cc(N2CCC(C(N)=O)CC2)ccc1Nc1nc(N)c(Cl)c(Nc2ccccc2S(=O)(=O)C(C)C)n1 [HG-5-88-01] + Cc1nc(NC(=O)N2CCC[C@H]2C(N)=O)sc1-c1ccnc(C(C)(C)C(F)(F)F)c1 [Alpelisib] (partner 2 µM)
A-427; first compound 0.04 µM
  relative viability: 1.07
A-427; first compound 0.1265 µM
  relative viability: 1.12
A-427; first compound 0.4 µM
  relative viability: 1.16
A-427; first compound 1.265 µM
  relative viability: 1.12
A-427; first compound 4 µM
  relative viability: 0.959
ABC-1; first compound 0.04 µM
  relative viability: 0.919
ABC-1; first compound 0.1265 µM
  relative viability: 0.885
ABC-1; first compound 0.4 µM
  relative viability: 0.855
ABC-1; first compound 1.265 µM
  relative viability: 0.713
ABC-1; first compound 4 µM
  relative viability: 0.993
COR-L23; first compound 0.04 µM
  relative viability: 0.774
COR-L23; first compound 0.1265 µM
  relative viability: 0.79
COR-L23; first compound 0.4 µM
  relative viability: 0.68
COR-L23; first compound 1.265 µM
  relative viability: 0.524
COR-L23; first compound 4 µM
  relative viability: 0.462
EMC-BAC-2; first compound 0.04 µM
  relative viability: 0.729
EMC-BAC-2; first compound 0.1265 µM
  relative viability: 0.757
EMC-BAC-2; first compound 0.4 µM
  relative viability: 0.723
EMC-BAC-2; first compound 1.265 µM
  relative viability: 0.703
EMC-BAC-2; first compound 4 µM
  relative viability: 0.628
HARA; first compound 0.04 µM
  relative viability: 0.938
HARA; first compound 0.1265 µM
  relative viability: 0.777
HARA; first compound 0.4 µM
  relative viability: 0.742
HARA; first compound 1.265 µM
  relative viability: 0.779
HARA; first compound 4 µM
  relative viability: 0.799
HCC-15; first compound 0.04 µM
  relative viability: 0.925
HCC-15; first compound 0.1265 µM
  relative viability: 0.865
HCC-15; first compound 0.4 µM
  relative viability: 0.936
HCC-15; first compound 1.265 µM
  relative viability: 0.832
HCC-15; first compound 4 µM
  relative viability: 0.775
HCC-366; first compound 0.04 µM
  relative viability: 0.49
HCC-366; first compound 0.1265 µM
  relative viability: 0.382
HCC-366; first compound 0.4 µM
  relative viability: 0.309
HCC-366; first compound 1.265 µM
  relative viability: 0.418
HCC-366; first compound 4 µM
  relative viability: 0.327
HCC-78; first compound 0.04 µM
  relative viability: 0.352
HCC-78; first compound 0.1265 µM
  relative viability: 0.304
HCC-78; first compound 0.4 µM
  relative viability: 0.263
HCC-78; first compound 1.265 µM
  relative viability: 0.207
HCC-78; first compound 4 µM
  relative viability: 0.241
LC-2-ad; first compound 0.04 µM
  relative viability: 0.91
LC-2-ad; first compound 0.1265 µM
  relative viability: 0.924
LC-2-ad; first compound 0.4 µM
  relative viability: 0.84
LC-2-ad; first compound 1.265 µM
  relative viability: 0.856
LC-2-ad; first compound 4 µM
  relative viability: 0.871
LK-2; first compound 0.04 µM
  relative viability: 1.16
LK-2; first compound 0.1265 µM
  relative viability: 1.23
LK-2; first compound 0.4 µM
  relative viability: 0.975
LK-2; first compound 1.265 µM
  relative viability: 0.632
LK-2; first compound 4 µM
  relative viability: 1.8
NCI-H1734; first compound 0.04 µM
  relative viability: 0.633
NCI-H1734; first compound 0.1265 µM
  relative viability: 0.657
NCI-H1734; first compound 0.4 µM
  relative viability: 0.727
NCI-H1734; first compound 1.265 µM
  relative viability: 0.713
NCI-H1734; first compound 4 µM
  relative viability: 0.799
NCI-H1793; first compound 0.1265 µM
  relative viability: 0.613
NCI-H1793; first compound 0.4 µM
  relative viability: 0.912
NCI-H1793; first compound 1.265 µM
  relative viability: 0.45
NCI-H1793; first compound 4 µM
  relative viability: 0.723
NCI-H1944; first compound 0.04 µM
  relative viability: 0.801
NCI-H1944; first compound 0.1265 µM
  relative viability: 0.833
NCI-H1944; first compound 0.4 µM
  relative viability: 1.01
NCI-H1944; first compound 1.265 µM
  relative viability: 0.71
NCI-H1944; first compound 4 µM
  relative viability: 0.844
NCI-H1993; first compound 0.04 µM
  relative viability: 0.709
NCI-H1993; first compound 0.1265 µM
  relative viability: 0.596
NCI-H1993; first compound 0.4 µM
  relative viability: 0.566
NCI-H1993; first compound 1.265 µM
  relative viability: 0.682
NCI-H1993; first compound 4 µM
  relative viability: 0.751
NCI-H2009; first compound 0.04 µM
  relative viability: 1.13
NCI-H2009; first compound 0.1265 µM
  relative viability: 1.05
NCI-H2009; first compound 0.4 µM
  relative viability: 1.05
NCI-H2009; first compound 1.265 µM
  relative viability: 1.17
NCI-H2009; first compound 4 µM
  relative viability: 1.14
NCI-H2023; first compound 0.04 µM
  relative viability: 0.659
NCI-H2023; first compound 0.1265 µM
  relative viability: 0.54
NCI-H2023; first compound 0.4 µM
  relative viability: 0.539
NCI-H2023; first compound 1.265 µM
  relative viability: 0.358
NCI-H2023; first compound 4 µM
  relative viability: 0.474
NCI-H2228; first compound 0.04 µM
  relative viability: 0.242
NCI-H2228; first compound 0.1265 µM
  relative viability: 0.297
NCI-H2228; first compound 0.4 µM
  relative viability: 0.324
NCI-H2228; first compound 1.265 µM
  relative viability: 0.224
NCI-H2228; first compound 4 µM
  relative viability: 0.476
NCI-H23; first compound 0.04 µM
  relative viability: 0.832
NCI-H23; first compound 0.1265 µM
  relative viability: 0.738
NCI-H23; first compound 0.4 µM
  relative viability: 0.67
NCI-H23; first compound 1.265 µM
  relative viability: 0.847
NCI-H23; first compound 4 µM
  relative viability: 0.496
NCI-H2405; first compound 0.04 µM
  relative viability: 0.749
NCI-H2405; first compound 0.1265 µM
  relative viability: 0.832
NCI-H2405; first compound 0.4 µM
  relative viability: 0.726
NCI-H2405; first compound 1.265 µM
  relative viability: 0.418
NCI-H2405; first compound 4 µM
  relative viability: 0.794
NCI-H838; first compound 0.04 µM
  relative viability: 1
NCI-H838; first compound 0.1265 µM
  relative viability: 1.1
NCI-H838; first compound 0.4 µM
  relative viability: 0.917
NCI-H838; first compound 1.265 µM
  relative viability: 0.9
NCI-H838; first compound 4 µM
  relative viability: 0.896
SK-LU-1; first compound 0.04 µM
  relative viability: 1.18
SK-LU-1; first compound 0.1265 µM
  relative viability: 0.988
SK-LU-1; first compound 0.4 µM
  relative viability: 0.895
SK-LU-1; first compound 1.265 µM
  relative viability: 0.966
SK-LU-1; first compound 4 µM
  relative viability: 0.797
UMC-11; first compound 0.04 µM
  relative viability: 1.01
UMC-11; first compound 0.1265 µM
  relative viability: 1
UMC-11; first compound 0.4 µM
  relative viability: 0.998
UMC-11; first compound 1.265 µM
  relative viability: 0.945
UMC-11; first compound 4 µM
  relative viability: 0.954
